Measured values reported in patent publication US20170224679A1, “Use of CXCR2 Antagonists For The Prevention and/or Treatment of Chemotherapy Induced Peripheral Neuropathy (CIPN)” (GlaxoSmithKline Intellectual Property Development Limited, priority 2014, published 2017).

Assays:
[1] = target: T1, CXCR1 receptor (Homo sapiens, UniProt P25024); assay: Receptor binding assay ([125I] IL-8 SPA), CXCR1; set-up: expressed in transfected cells; host or cells: CHO cells (membranes); conditions: [125I] IL-8 binding, CHO-CXCR1 membranes; read-out: pIC50 against the CXCR1 receptor (converted)
T1 sequence (P25024 1-350): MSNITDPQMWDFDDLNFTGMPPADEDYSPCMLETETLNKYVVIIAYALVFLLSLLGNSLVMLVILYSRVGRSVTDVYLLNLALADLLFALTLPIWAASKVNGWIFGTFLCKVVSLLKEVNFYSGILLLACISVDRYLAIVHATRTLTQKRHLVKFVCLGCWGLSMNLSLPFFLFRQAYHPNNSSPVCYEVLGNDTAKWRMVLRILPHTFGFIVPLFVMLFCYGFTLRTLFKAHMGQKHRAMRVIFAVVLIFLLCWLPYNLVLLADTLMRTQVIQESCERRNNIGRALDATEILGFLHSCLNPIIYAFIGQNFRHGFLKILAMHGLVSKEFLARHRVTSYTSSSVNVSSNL
Protocol: [^125I] IL-8 (human recombinant, IM249) was obtained from Amersham Corp., Arlington Heights, Ill., with specific activity 2000 Ci/mmol. All other chemicals were of analytical grade. High levels of recombinant human CXCR1 and CXCR2 receptors were individually expressed in Chinese hamster ovary (CHO) cells as described in Holmes, et al., Science, 1991, 253, 1278, incorporated herein to the extent required to perform the present assay. The Chinese hamster ovary membranes were prepared according to Haour, et al., J. Biol. Chem., 249 pp 2195-2205 (1974), incorporated herein to the extent required to perform the present assay, except that the homogenization buffer was changed to 40 mM Tris-HCL pH 7.5 containing 1 mM MgSO4, 0.5 mM EDTA (ethylene-diaminetetra-acetic acid), 1 mM PMSF (α-toluene-sulphonyl fluoride), 2.5 mg/L Leupeptin and 0.1 mg/ml Aprotinin. Membrane protein concentration was determined using Bio-Rad Reagent using bovine serum albumin as a standard. All binding assays were conducted using Scintillation Proximity Assay (SPA assay) using wheatgerm agglutinin beads in a 96-well micro plate (optiplate 96, Packard) format. […] The 96-well plates were incubated on a shaking platform for 1 hour. At the end of the incubation the plates were spun for 5 min at 2000 RPM, and counted in a Top Count counter.

[2] = target: T2, CXCR2 receptor (Homo sapiens, UniProt P25025); assay: CXCR2 Tango assay; assay type: cell-based; set-up: fused on or other part: TEV protease cleavage site and Gal4-VP16 transcription factor fused to the receptor (Invitrogen Tango construct); no part of the key; conditions: Tango reporter gene, 80 nM hCXCL1; read-out: pIC50 against the CXCR2 receptor (converted)
T2 sequence (P25025 1-360): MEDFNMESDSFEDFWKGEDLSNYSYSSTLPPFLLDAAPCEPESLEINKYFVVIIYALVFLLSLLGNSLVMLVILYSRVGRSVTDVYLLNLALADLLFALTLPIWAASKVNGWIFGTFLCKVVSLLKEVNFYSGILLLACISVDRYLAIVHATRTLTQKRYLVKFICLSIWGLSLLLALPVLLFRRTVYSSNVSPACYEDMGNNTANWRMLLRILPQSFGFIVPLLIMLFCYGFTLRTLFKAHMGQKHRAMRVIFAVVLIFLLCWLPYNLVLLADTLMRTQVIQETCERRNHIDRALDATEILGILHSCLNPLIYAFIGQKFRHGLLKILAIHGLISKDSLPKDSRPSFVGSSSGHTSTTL
From the text: The assay measures ligand-induced activation of the receptor CXCR2 in a stable cell line containing the recombinant human CXCR2 linked to a TEV protease site and a Gal4-VP16 transcription factor (Invitrogen). Ligand binding to the receptor results in the recruitment of arrestin proteins (tagged with protease) to the receptor and triggers the release of a tethered transcription factor. The transcription factor enters the nucleus and activates the transcription of the reporter gene. The ability of a compound to inhibit CXCR2 activation is indirectly assessed by measuring the reporter gene activity.
A vial of cryopreserved cells was removed from liquid nitrogen and rapidly thawed in a water bath at 37° C. with gentle agitation. The cell contents were collected and resuspended in Assay Medium at a density of ˜200,000 cells/ml. All test compounds were dissolved in DMSO at a concentration of 10 mM and then were serially diluted to generate a 10-point dose response curve into 384-well assay plate (Greiner 781090) using an Echo (Labcyte) concentration-response program (50 nl/well). The cell-free, un-stimulated and positive controls were loaded with 50 nl/well pure DMSO to ensure that the DMSO concentration was constant across the plate for all assays. Using Multi-drop Combi (Thermo) with standard cassette, 50 μl of Assay Medium was added to cell-free control wells in compound-containing assay plate; 50 μl of the cell suspension without hCXCL1 (a CXCR2 ligand) was added to un-stimulated control wells (10,000 cells per well); and 50 μl of the cell suspension with 80 nM hCXCL1 was added to the rest of wells of the assay plate (10,000 cells per well). The cells were incubated overnight at 37° C./5% CO2·10 μl of 6× substrate mixture (LiveBLAzer™-FRET B/G substrate (CCF4-AM) Cat #K1096 from Invitrogen, Inc.) was added to each well using Multi-drop Combi (Thermo) with small-tube cassette and the plate was incubated at room temperature for 2 h in the dark. The plate was then read on EnVision using one excitation channel (409 nm) and two emission channels (460 nm and 530 nm).
The blue/green emission ratio (460 nm/530 nm) was calculated for each well by dividing the background-subtracted Blue emission values by the background-subtracted Green emission values. The dose response curve was based on sigmoidal dose-response model. All ratio data was normalized based upon the maximum emission ratio of positive control (hCXCL1) and minimum emission ratio of negative control (DMSO) on each plate.

[3] = target: T2, CXCR2 receptor; assay: Human whole blood assay version i) (CD11b, CXCL1 stimulated); assay type: cell-based; set-up: Assay d) measures the cellular functional activity to the native expressed human CXCR2 in whole blood; endogenous in cells; host or cells: human whole blood (neutrophils); conditions: 10 nM CXCL1, neutrophil CD11b, read-out: pIC50 against the CXCR2 receptor (converted)
Protocol: Human blood was obtained from healthy consenting adults by trained medical professionals by venipuncture in a 10 ml syringe containing 225 μI of 0.25 M EDTA and filling with 7 ml of blood (maintained at 37° C. throughout the CXCL1 stimulation).
The test compounds were dissolved in 100% DMSO to a concentration of 10 mM and diluted to 12× the assay concentration in 1.2% DMSO (final concentration DMSO of 0.1%).
Assay: 100 μI of whole blood was added to assay tubes or 96 well U-bottom clear plates containing 10 μI of 1.2% DMSO (assay concentration of 0.1%) or 10 μI of compound dissolved in 1.2% DMSO (assay concentration range of 0.1 μM to 10 μM), then incubated for 10 minutes at 37° C., followed by addition of 10 μI of 0.1% BSA in DPBS (negative controls) or 10 μI of 120 nM CXCL1 (GROα, Prepro Tech, Inc) dissolved in 0.1% BSA in DPBS (assay concentration of 10 nM which is the EC80 for CXCL1) and incubated at 37° C. for an additional 10 min with gentle agitation before being placed on ice and assay terminated by adding 250 μI of CellFix or 250 μI of 3.7% v/v paraformaldehyde (BD Biosciences). […] Before being analyzed using an LSR flow cytometer (Becton-Dickinson) or FACS Canto II, cells were stained for 10 minutes at 4° C. with 10 μI of LDS-751 (Molecular Probes), a nucleic acid stain, allowing a cytometer threshold setting to exclude red blood cells. […]

| Structure (SMILES) | IC50 [1] [µM] | IC50 [2] [nM] | IC50 [3] [nM] |
| --- | --- | --- | --- |
| O=C(Nc1ccc(Cl)c(S(=O)(=O)N2CCNCC2)c1O)Nc1cccc(F)c1Cl [Compound of Formula (A), 1-(4-chloro-2-hydroxy-3-(piperazin-1-ylsulfonyl)phenyl)-3-(2-chloro-3-fluorophenyl)urea] | 3.16 | 0.631 | 2000 |
| CN1CCC(C)(S(=O)(=O)c2c(Cl)ccc(NC(=O)Nc3cccc(F)c3Cl)c2O)CC1 [Compound of Formula (D), 1-(4-chloro-3-((1,4-dimethylpiperidin-4-yl)sulfonyl)-2-hydroxyphenyl)-3-(2-chloro-3-fluorophenyl)urea] | – | 1.26 | 3980 |
